In PMC10454375, “Cell-Impermeable Inhibitors Confirm That Intracellular Human Transglutaminase 2 Is Responsible for the Transglutaminase-Associated Cancer Phenotype” (International Journal of Molecular Sciences, 2023):
Peptide text beside a SMILES is read from it. * marks the point of attachment. X1 = C=CC(=O)NCCCCC(NC(=O)OCc1ccccc1)C(=O)N1CCN(C(=O)C(CCC(=O)*)NC(=O)c2cccc3ccccc23)CC1

Tests used:
TG1 = biological target: T1, TG1 (Homo sapiens, UniProt P22735); experiment: TGase isozyme selectivity, TG1 with AL5 substrate; type: biochemical; conditions: [I]/α identical to that of the TG2 assay
T1 construct: purchased Zedira GmbH (Darmstadt, Germany)
T1 sequence (P22735 1-817): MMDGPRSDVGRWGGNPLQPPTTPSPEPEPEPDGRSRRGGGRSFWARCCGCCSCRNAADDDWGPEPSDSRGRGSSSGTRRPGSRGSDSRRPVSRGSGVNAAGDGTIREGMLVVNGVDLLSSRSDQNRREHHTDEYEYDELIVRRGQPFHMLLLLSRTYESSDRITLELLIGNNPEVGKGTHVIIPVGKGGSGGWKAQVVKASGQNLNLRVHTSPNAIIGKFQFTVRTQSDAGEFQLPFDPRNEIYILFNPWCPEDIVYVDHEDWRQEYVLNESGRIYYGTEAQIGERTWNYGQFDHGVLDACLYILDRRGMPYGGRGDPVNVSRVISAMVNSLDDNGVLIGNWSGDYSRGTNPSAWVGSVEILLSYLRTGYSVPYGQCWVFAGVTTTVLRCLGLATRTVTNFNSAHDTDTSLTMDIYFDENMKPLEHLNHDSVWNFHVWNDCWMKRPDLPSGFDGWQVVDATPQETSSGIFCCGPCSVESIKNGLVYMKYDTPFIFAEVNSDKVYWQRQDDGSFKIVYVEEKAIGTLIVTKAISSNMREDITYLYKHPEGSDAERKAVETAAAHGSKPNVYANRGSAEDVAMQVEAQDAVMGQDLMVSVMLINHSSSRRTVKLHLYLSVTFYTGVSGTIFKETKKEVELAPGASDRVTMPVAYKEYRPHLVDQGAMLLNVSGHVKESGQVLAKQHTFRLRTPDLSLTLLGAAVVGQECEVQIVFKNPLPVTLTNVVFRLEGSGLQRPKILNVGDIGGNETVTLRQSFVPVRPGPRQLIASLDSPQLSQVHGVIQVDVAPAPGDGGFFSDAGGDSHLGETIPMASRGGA
From the text: (§1) In the development of probes for TGases, isozyme selectivity is always a significant challenge. Since the catalytic machinery of the active sites of all TGases features a conserved Gly-Gln-Cys-Trp-Val sequence, selectivity for one isozyme over the others requires exploitation of slight differences in the protein substrate binding sites. In order to assess the isozyme selectivity of our cell-impermeable inhibitors, TG2 and four other therapeutically relevant TGases (Factor XIII, TG1, TG3, and TG6) were exposed to a concentration of inhibitor representing the same apparent competition with respect to the assay substrate (AL5 [38] or A101 [42, 43]). In other words, both the substrate and inhibitor concentrations were varied so that the [I]/α values were identical. […] This provides confidence that in further applications, these cell-impermeable inhibitors will selectively target TG2 over other transglutaminases.
(§2) To monitor the activity of TG3a and TG6, a FRET-quenched substrate A101 (Zedira Gmbh) was used. […] The isopeptidase activity of the respective TGase was then monitored at Ex/Em = 313/418 nm with a BioTek Synergy 4 plate reader at 25 °C. […]

TG3a = biological target: T2, TG3a (Homo sapiens, UniProt Q08188); experiment: TGase isozyme selectivity, TG3a with A101 substrate; type: biochemical; conditions: [I]/α identical to that of the TG2 assay
T2 construct: purchased Zedira GmbH (Darmstadt, Germany)
T2 sequence (Q08188 2-467 limits assumed): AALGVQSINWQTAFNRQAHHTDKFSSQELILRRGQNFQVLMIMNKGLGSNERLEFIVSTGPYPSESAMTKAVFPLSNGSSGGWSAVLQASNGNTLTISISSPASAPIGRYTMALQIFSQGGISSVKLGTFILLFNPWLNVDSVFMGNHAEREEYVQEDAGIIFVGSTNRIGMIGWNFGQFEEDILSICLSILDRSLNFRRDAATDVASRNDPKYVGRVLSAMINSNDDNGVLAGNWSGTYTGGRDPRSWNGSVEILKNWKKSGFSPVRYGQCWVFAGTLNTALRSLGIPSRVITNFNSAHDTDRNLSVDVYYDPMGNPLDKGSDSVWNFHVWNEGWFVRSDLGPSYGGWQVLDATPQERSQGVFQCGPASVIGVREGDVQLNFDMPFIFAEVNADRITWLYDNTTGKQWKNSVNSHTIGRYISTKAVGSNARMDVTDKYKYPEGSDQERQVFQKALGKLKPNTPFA
T2 sequence (Q08188 468-693 partner limits assumed): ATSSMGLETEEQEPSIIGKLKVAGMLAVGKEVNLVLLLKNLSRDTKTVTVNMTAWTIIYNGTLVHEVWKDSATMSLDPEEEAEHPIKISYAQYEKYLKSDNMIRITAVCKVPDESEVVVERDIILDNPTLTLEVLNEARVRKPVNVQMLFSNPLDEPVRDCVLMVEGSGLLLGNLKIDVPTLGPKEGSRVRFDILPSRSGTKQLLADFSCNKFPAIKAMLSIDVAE
From the text: as §1, §2

Log D = type: physicochemical
From the text: Table 2 Representative pharmacokinetic properties for cell-impermeable inhibitors 17 and 18. | column: 17; 18 (NCEG2)

Structure (SMILES) | inhibition of TG1 (TG1) | inhibition of TG3 (TG3a) | logD (Log D)
C=CC(=O)NCCCCC(NC(=O)OCc1ccccc1)C(=O)N1CCN(C(=O)C(CCC(=O)NCCCCCC(=O)NC(CC(=O)O)C(=O)NC(CC(=O)O)C(=O)NC(CC(=O)O)C(=O)O)NC(=O)c2cccc3ccccc23)CC1 (stereo not drawn) [Compound 17] | no detectable inhibition | no detectable inhibition | < -2.73
C=CC(=O)NCCCCC(NC(=O)OCc1ccccc1)C(=O)N1CCN(C(=O)C(CCC(=O)NCC(=O)NCC(=O)NCC(=O)NC(CC(=O)O)C(=O)NC(CC(=O)O)C(=O)NC(CC(=O)O)C(=O)O)NC(=O)c2cccc3ccccc23)CC1 (stereo not drawn) [Compound 18] (X1-GGGDDD-OH; configuration not given here) | no detectable inhibition | no detectable inhibition | < -2.63
